Results on two molecules are retold here after US20090181392A1, “Transgenic Zebrafish Models for Neurodegenerative Diseases” (priority 2001, published 2009).

Each structure is given as a SMILES string. “Also recorded” adds a separate entry of the source.

The test system of the data set is dopaminergic neurons in zebrafish embryos. Nature of the data set: MPTP neurotoxicity and neuroprotection in zebrafish embryos, whole mount in situ hybridization with tyrosine hydroxylase probe. The data set is classed as in vivo, zebrafish (Danio rerio). The following applies: for protection of neurons from MPTP-induced damage: coculture/coincubation of embryos with MPTP 10 μg/mL (43 μM). Here is the method:
Mating pairs of adult zebrafish are placed in mating cages in the evening. The following morning, eggs are collected from the bottom of the mating cage and fertile embryos are placed in fresh fish water. At the end of the day, (embryos should be at the late gastrulation stage) phenylthiourea (PTU, Sigma-Aldrich) is added to a final concentration of 0.003% to prevent formation of pigment. At approximately 24 hours past fertilization (hpf), embryos are transferred to a 24 or 96 well plate for treatment in different concentrations of neurotoxins. Zebrafish embryos at this stage in development have completed much of their brain development and primary neurogenesis (Kimmel, et al., 1995). Motor neurons and some dopaminergic neurons are detectable at this stage (Eisen, et al., 1986; Guo, et al., 1999).
Initial concentrations of neurotoxins, including MPTP, hydroxydopamine, NMDA and THA (all purchased from Sigma-Aldrich), are determined based on the concentrations administered to goldfish (Goping, et al., 1995) and that used in cultured spinal cord explant experiments (Rothstein, et al., 1993; Annis and Vaugn, 1998). One of skill can adjust the concentrations depending on the level of neuronal damage desired and the time frame for neuronal damage.
After embryos are secured in plates with lids, plates are transferred to an incubator, preset to 28.5° C., the optimal temperature for zebrafish development. At different time points (1, 2, and 3 days after treatment), untreated embryos and embryos treated with MPTP or hydroxydopamine are fixed in 4% paraformaldehyde and prepared for in situ hybridization and/or immunohistochemistry.
In situ hybridization is performed as described by Thisse, et al. (1993). A plasmid containing a partial cDNA sequence encoding tyrosine hydroxylase was obtained from A. Rosenthal (Guo, et al., 1999). An antisense RNA probe to this gene can be synthesized by in vitro transcription, incorporating digoxygenin-labeled UTP (Roche Molecular Biochemicals). Embryos are hybridized with probe overnight at 70 degrees in 50% formamide buffer. After several washes, embryos are incubated overnight with an antibody to digoxygenin conjugated to alkaline phosphatase (Roche Molecular Biochemicals). […]
This study is performed essentially as described above, except that neuroprotective drugs (levodopa, deprenyl, and D-AP5, Sigma-Aldrich) are added to the embryo cultures at selected time points, both concurrently with neurotoxins and after neurotoxins have exerted their effects. Initial concentrations are determined based on that used in goldfish and tissue culture expeirments. Again, results are measured by examination of neurons in both a qualitative and quantitative manner, as described above. […]

With `CN1CC=C(c2ccccc2)CC1` [MPTP, 1-methyl-4-phenyl-1,2,3,6-tetrahydropyridine], where the note is “MPTP 10 μg/mL (43 μM), 5 day old embryo, tyrosine hydroxylase in situ hybridization (FIG. 2)”, the “effect on non-dopaminergic cell populations” value was “unchanged”. Further, where the note is “MPTP 10 μg/mL (about 43 μM), embryos soaked, 5 day old embryo, tyrosine hydroxylase in situ hybridization (FIG. 2)”, the “effect on dopaminergic neurons / dopaminergic populations” value is “destroys dopaminergic populations; also recorded: significantly reduced”.

`C#CCN(C)[C@H](C)Cc1ccccc1` [L-deprenyl]: the “protection of neurons from MPTP-induced damage” value is listed as “MPTP-induced damage can be prevented”. Moreover, the “protection of neurons from MPTP-induced damage” value (listed as deprenyl) is on record as “protects neurons”.
